# Measured values: patent US7799775B2, “Pyrimidine derivatives” (ASKA Pharmaceutical Co., Ltd., priority 2004, dated 2010)
# Structures can show the parent of a compound that is named as a salt.
# Columns and labels:
# human 5-HT1A receptor = target: T1, human 5-HT1A receptor (Homo sapiens, UniProt P08908); experiment: Affinity measurement of the compounds to human 5-HT1A receptor (in vitro), [3H]8-OH-DPAT binding; conditions: test compound 100 nmols/L; [3H]8-OH-DPAT 0.25 nmols/L; CHO cell membrane expressing human 5-HT1A receptor; read-out: Percent Inhibition (%) on Each Receptor's Binding at 10^−7M, 5-HT1A
# T1 construct: purchased Packard Bioscience; host or cells: CHO cells (membrane preparation)
# T1 sequence (P08908 1-422): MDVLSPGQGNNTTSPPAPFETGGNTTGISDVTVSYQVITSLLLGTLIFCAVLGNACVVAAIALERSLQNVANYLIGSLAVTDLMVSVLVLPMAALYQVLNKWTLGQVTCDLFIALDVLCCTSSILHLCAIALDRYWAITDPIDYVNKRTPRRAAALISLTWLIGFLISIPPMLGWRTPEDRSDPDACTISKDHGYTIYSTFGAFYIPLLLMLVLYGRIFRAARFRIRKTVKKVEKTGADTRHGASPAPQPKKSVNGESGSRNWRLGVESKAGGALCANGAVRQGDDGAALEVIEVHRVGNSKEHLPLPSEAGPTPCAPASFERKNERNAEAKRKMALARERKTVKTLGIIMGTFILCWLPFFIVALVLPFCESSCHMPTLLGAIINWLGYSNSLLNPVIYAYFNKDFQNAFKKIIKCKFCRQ
# Description: (1) Affinity Measurement of the Compounds to Human 5-HT1A Receptor (in Vitro)
# CHO cell membrane sample in which human 5-HT1A receptor was expressed (purchased from Packard Bioscience) 0.25 mL (about 50 units) was added to 24.75 mL of incubation buffer solution A (an aqueous solution of a mixture of 50 mmols/L of Tris-hydrochloric acid, 10 mmols/L of magnesium sulfate, 0.5 mmols/L of EDTA and 0.1% ascorbic acid, whose pH was adjusted to 7.4 at 27° C. with 1N-aqueous sodium hydroxide solution), and labeled as membrane sample suspension A. Separately, each test compound was made into 270 μmols/L DMSO solution and diluted to a prescribed concentration with the incubation buffer solution A, to provide a compound solution.
# A piece of polypropylene tube was charged with 20 μL of [^3H]8-OH-DPAT (8-hydroxy-2-(di-n-propylamino)tetralin; purchased from Daiichi Pure Chemicals Co., Ltd.) (The concentration of the [^3H]8-OH-DPAT had been advancedly adjusted to render its concentration in the reaction mixture to 0.25 nmols/L) and 20 μL of one of the compound solutions. Further 500 μL of the membrane sample suspension A was added into the tube, followed by 60 minutes' incubation at 27° C. The reaction was terminated by rapid filtration of the reaction mixture through GF/C filter which had been advancedly immersed in a solution formed by adding to the incubation buffer solution A polyethyleneimine to a concentration of 0.3%, using Brandel cell harvester. Then the filter was washed with about 5 mL of 50 mmols/L of Tris-hydrochloric acid which had been cooled to 4° C. The filter was once again washed after similar operation.
# (§1) Residual radioactivity on the filter was measured with liquid scintillation counter (Aloka Co., LSC-5100). Percent inhibition (%) of each test compound to binding of [^3H]8-OH-DPAT to 5-HT1A receptor at a concentration of 0.25 nmols/L, i.e., affinity of each test compound to 5-HT1A receptor, can be calculated according to the following expression. The ratio of non-specific binding was calculated by measuring the radioactivity in case of using 8-OH-DPAT at a concentration of 10 μmols/L, with which value the measured value of each test compound was compensated.
# (§2) Affinity of each test compound to 5-HT1A receptor and 5-HT3 receptor at a concentration of 100 nmols/L were as shown in the following Tables A-1 and A-2. BRL-43694 and tropisetron (ICS 205-930), which were used in measuring affinity of those compounds to 5-HT3 receptor, have the following structures: […]
# human 5-HT3 receptor = target: T2, human 5-HT3 receptor (Homo sapiens, UniProt P46098); experiment: Measurement of affinity to human 5-HT3 receptor (in vitro), [3H]BRL-43694 binding; conditions: test compound 100 nmols/L; [3H]BRL-43694 0.5 nmols/L; HEK-293 cell membrane expressing human 5-HT3 receptor; read-out: Percent Inhibition (%) on Each Receptor's Binding at 10^−7M, 5-HT3
# T2 construct: purchased BIOLINKS K.K; host or cells: HEK-293 cells (membrane preparation)
# T2 sequence (P46098 24-478): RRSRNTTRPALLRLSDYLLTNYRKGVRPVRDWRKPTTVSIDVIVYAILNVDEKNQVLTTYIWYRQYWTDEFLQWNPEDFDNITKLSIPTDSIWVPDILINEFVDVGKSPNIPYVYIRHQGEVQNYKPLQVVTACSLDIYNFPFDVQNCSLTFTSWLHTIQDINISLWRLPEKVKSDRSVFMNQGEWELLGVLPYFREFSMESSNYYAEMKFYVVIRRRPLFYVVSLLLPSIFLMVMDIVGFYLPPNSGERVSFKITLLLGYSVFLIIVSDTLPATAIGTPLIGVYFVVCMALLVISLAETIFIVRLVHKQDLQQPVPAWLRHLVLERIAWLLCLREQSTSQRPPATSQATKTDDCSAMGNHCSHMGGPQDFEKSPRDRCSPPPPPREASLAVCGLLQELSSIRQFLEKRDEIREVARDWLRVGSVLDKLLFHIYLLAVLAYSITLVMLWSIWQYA
# Description: (2) Measurement of Affinity of Each Test Compound to Human 5-HT3 Receptor (in Vitro):
# HEK-293 cell membrane sample in which human 5-HT3 receptor was expressed (purchased from BIOLINKS K.K.) 0.05 mL (about 50 microassay) was added to 24.95 mL of incubation buffer solution B (an aqueous solution of a mixture of 50 mmols/L of Tris-hydrochloric acid, 5 mmols/L of magnesium chloride and 1 mmol/L of EDTA, whose pH was adjusted to 7.5 at 25° C. with 1N-aqueous sodium hydroxide solution) and homogenized, to provide a membrane sample suspension B. Separately, each test compound was made into 270 μmols/L of DMSO solution and diluted to a prescribed concentration with the incubation buffer solution B to provide a compound solution.
# A piece of polypropylene tube was charged with 20 μL of [^3H]BRL-43694 (purchased from Daiichi Pure Chemicals Co., Ltd.) (The concentration of [^3H]BRL-43694 had been advancedly adjusted to render its concentration in the reaction mixture to 0.5 nmols/L.) and 20 μL of one of the compound solutions. Further 500 μL of the membrane sample suspension B was added into the tube, followed by 60 minutes' incubation at 25° C. The reaction was terminated by rapid filtration of the reaction mixture through GF/B filter which had been advancedly immersed in a solution formed by adding to the incubation buffer solution B polyethyleneimine to a concentration of 0.5%, using Brandel cell harvester. Then the filter was washed with about 5 mL of 50 mmols/L of Tris-hydrochloric acid which had been cooled to 4° C. The filter was once again washed after similar operation.
# as §1, with “(ALOKA CO., LTD.” for “(Aloka Co.,”, “[^3H]BRL-43694” for “[^3H]8-OH-DPAT”, “5-HT3” for “5-HT1A”, “0.5” for “0.25”, “tropisetron: (ICS 205-930)” for “8-OH-DPAT”
# as §2
SMILES,inhibition at 0.1 µM (human 5-HT1A receptor) [%],inhibition at 0.1 µM (human 5-HT3 receptor) [%]
"c1cc2occc2c(N2CCN3CCC[C@@H]3C2)n1 [Production Example 113, 4-((8aR)-octahydropyrrolo[1,2-a]pyrazin-2-yl)furo[3,2-c]pyridine]",56.4,82.4
"c1cc2ccoc2c(N2CCN3CCCCC3C2)n1 (centres unmarked) [Production Example 118, 7-octahydropyrido[1,2-a]pyrazin-2-ylfuro[2,3-c]pyridine]",76,84.9
"Cn1c(CCCCN2CCN(c3ccc4ccccc4n3)CC2)nc2ccc(Br)cc2c1=O [Example 7-26, 6-bromo-3-methyl-2-[4-(4-quinolin-2-ylpiperazin-1-yl)butyl]-3H-quinazolin-4-one]",85.2,71.6
"Cc1ccc2nc(CCCCN3CCN(c4ccc5ccccc5n4)CC3)n(N)c(=O)c2c1 [Example 4-20, 3-amino-6-methyl-2-[4-(4-quinolin-2-ylpiperazin-1-yl)butyl]-3H-quinazolin-4-one]",94.3,87.8
"COc1ccc2ccnc(N3CCN4CCC[C@@H]4C3)c2c1 [Production Example 77, 1-((8aR)-octahydropyrrolo[1,2-a]pyrazin-2-yl)-7-methoxyisoquinoline]",98.9,97.9
"COc1ccc2ccnc(N3CCN(C)CC3)c2c1 [Production Example 32, 7-methoxy-1-(4-methylpiperazin-1-yl)isoquinoline]",91.7,94.4
"O=c1[nH]c(NCCCN2CCN(c3nc4ccccc4n4cccc34)CC2)nc2ccccc12 [Example 5-8, 2-[3-(4-pyrrolo[1,2-a]quinoxalin-4-ylpiperazin-1-yl)propylamino]-3H-quinazolin-4-one]",54.5,85.5
"CC1CCc2c(sc3nc(SCCCN4CCN(c5ccc6ccccc6n5)CC4)n(N)c(=O)c23)C1 (centres unmarked) [Example 1-31, 3-amino-7-methyl-2-[3-(4-quinolin-2-ylpiperazin-1-yl)propylthio]-5,6,7,8-tetrahydro-3H-benzo[4,5]thieno[2,3-d]pyrimidin-4-one]",97.9,92.4
"CN1CCN(c2nc(Cl)cc3ccccc23)CC1 [Production Example 16, 3-chloro-1-(4-methylpiperazin-1-yl)isoquinoline dihydrochloride]",61.1,99.2
"CCn1c(CCCCN2CCN(c3nc4ccccc4s3)CC2)nc2c(c1=O)CCCC2 [Example 7-10, 2-[4-(4-benzothiazol-2-ylpiperazin-1-yl)butyl]-3-ethyl-5,6,7,8-tetrahydro-3H-quinazolin-4-one]",16.1,7.1
"Cc1sc2nc(CCCCN3CCN(c4ccc5ccccc5n4)CC3)n(N)c(=O)c2c1C [Example 4-35, 3-amino-5,6-dimethyl-2-[4-(4-quinolin-2-ylpiperazin-1-yl)butyl]-3H-thieno[2,3-d]pyrimidin-4-one]",98,96.9
"O=c1[nH]c(SCCCN2CCN(c3ccc4ccccc4n3)CC2)nc2ccsc12 [Example 2-12, 2-[3-(4-quinolin-2-ylpiperazin-1-yl)propylthio]-3H-thieno[3,2-d]-pyrimidin-4-one]",41.9,34.6
"Cc1cc(N2CCN(CCCCc3nc4c(c(=O)n3Cc3ccccc3)CCCC4)CC2)nc2ccccc12 [Example 7-8, 3-benzyl-2-[4-[4-(4-methylquinolin-2-yl)piperazin-1-yl]butyl]-5,6,7,8-tetrahydro-3H-quinazolin-4-one]",93.4,78.8
"CC(CCCc1nc2c(c(=O)n1C)CCCC2)N1CCN(c2ccc3ccccc3n2)CC1 (centres unmarked) [Example 7-14, 3-methyl-2-[4-(4-quinolin-2-ylpiperazin-1-yl)pentyl]-5,6,7,8-tetrahydro-3H-quinazolin-4-one]",77.8,16.7
"CCn1c(CCCCN2CCN(c3ccc4ccccc4n3)CC2)nc2ccccc2c1=O [Example 7-21, 3-2-[4-(4-quinolin-2-ylpiperazin-1-yl)butyl]-3H-quinazolin-4-one]",97.4,95
"c1cc2occc2c(N2CCN3CCC[C@H]3C2)n1 [Production Example 105, 4-((8aS)-octahydropyrrolo[1,2-a]pyrazin-2-yl)furo[3,2-c]pyridine]",72.7,96.4
"c1ccc(CO[C@@H]2C[C@H]3CN(c4nccc5ccsc45)CCN3C2)cc1 [Production Example 116, 7-((7R,8aS)-7-benzyloxyoctahydropyrrolo[1,2-a]pyrazin-2-yl)thieno-[2,3-c]pyridine]",70.6,25.6
"Nn1c(CCCCN2CCN(c3ccc4ccccc4n3)CC2)nc2sccc2c1=O [Example 4-23, 3-amino-2-[4-(4-quinolin-2-ylpiperazin-1-yl)butyl]-3H-thieno[2,3-d]-pyrimidin-4-one]",97,79.3
"CN1CCN(c2nccc3ccc(N(C)C)cc23)CC1 [Production Example 89, 7-dimethylamino-1-(4-methylpiperazin-1-yl)isoquinoline]",92.1,83.5
